According to ChEMBL document CHEMBL1136804, “Adenosine kinase inhibitors. 3. Synthesis, SAR, and antiinflammatory activity of a series of l-lyxofuranosyl nucleosides” (J Med Chem, 2003):

Experiments:
Rattus norvegicus = assay: Anti-inflammatory activity at a dose of 10 mg/kg, perorally in rat Carrageenan paw edema model; assay type: functional; settings: route oral
Adenosine kinase = Adenosine kinase (Homo sapiens, UniProt P55263); assay: Inhibitory activity against human recombinant adenosine kinase
Chain of Adenosine kinase (P55263 whole entry): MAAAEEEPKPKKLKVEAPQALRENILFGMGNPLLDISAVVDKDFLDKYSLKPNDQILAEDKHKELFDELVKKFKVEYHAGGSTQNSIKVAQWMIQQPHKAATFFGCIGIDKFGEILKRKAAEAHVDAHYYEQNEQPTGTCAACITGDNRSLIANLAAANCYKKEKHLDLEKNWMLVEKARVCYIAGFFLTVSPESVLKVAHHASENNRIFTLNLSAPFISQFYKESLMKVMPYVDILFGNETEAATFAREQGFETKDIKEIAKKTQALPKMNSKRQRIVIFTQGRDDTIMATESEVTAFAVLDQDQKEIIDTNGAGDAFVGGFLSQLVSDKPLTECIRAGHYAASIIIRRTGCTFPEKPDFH

SMILES | inhibition in vivo at 10 mg/kg (Rattus norvegicus) [%] | IC50 (Adenosine kinase) [nM]
OC[C@@H]1O[C@@H](n2nc(-c3ccccc3)c3c(Nc4ccccc4)ncnc32)[C@H](O)[C@@H]1O (single isomer, unassigned) | 14.2 | 2.8
Nc1ncnc2c1c(Br)nn2[C@@H]1O[C@@H](CO)[C@@H](O)[C@H]1O (single isomer, unassigned) | – | 10000
Nc1ncnc2c1c(Br)cn2[C@@H]1O[C@@H](CO)[C@@H](O)[C@H]1O (single isomer, unassigned) | – | 280
Nc1ncnc2c1ncn2[C@@H]1O[C@@H](CO)[C@@H](O)[C@H]1O (single isomer, unassigned) | – | 1000
NC[C@H]1O[C@@H](n2nc(Br)c3c(N)ncnc32)[C@H](O)[C@@H]1O (single isomer, unassigned) | – | 4
NC[C@@H]1O[C@@H](n2cnc3c(N)ncnc32)[C@H](O)[C@@H]1O (single isomer, unassigned) | – | 10000
NC[C@@H]1O[C@@H](n2cc(I)c3c(N)ncnc32)[C@H](O)[C@@H]1O (single isomer, unassigned) | – | 16
OC[C@@H]1O[C@@H](n2cc(-c3ccccc3)c3c(Nc4ccc(F)cc4)ncnc32)[C@H](O)[C@@H]1O (single isomer, unassigned) | 53.5 | 1.5
NC[C@@H]1O[C@@H](n2nc(-c3ccccc3)c3c(Nc4ccccc4)ncnc32)[C@H](O)[C@@H]1O (single isomer, unassigned) | – | 42
C[C@H]1O[C@@H](n2cc(-c3ccccc3)c3c(Nc4ccc(F)cc4)ncnc32)[C@H](O)[C@@H]1O (single isomer, unassigned) | – | 5
COC[C@@H]1O[C@@H](n2cc(-c3ccccc3)c3c(Nc4ccccc4)ncnc32)[C@H](O)[C@@H]1O (single isomer, unassigned) | 86 | 15
Nc1ncnc2c1c(I)cn2[C@@H]1O[C@@H](CO)[C@@H](O)[C@H]1O (single isomer, unassigned) | 43.8 | –
COC[C@@H]1O[C@@H](n2cc(I)c3c(N)ncnc32)[C@H](O)[C@@H]1O (single isomer, unassigned) | – | 2000
NC[C@@H]1O[C@@H](n2nc(Br)c3c(N)ncnc32)[C@H](O)[C@@H]1O (single isomer, unassigned) | – | 170
